Experimental data: ChEMBL document CHEMBL4837181 (Eur J Med Chem, 2020)
Where a SMILES comes first, the peptide text is derived from it. [ ]: non-standard residue; d: D form. dTrp(1-Me) = Cn1cc(C[C@@H](N)C(=O)O)c2ccccc21

How the values were obtained:
[1] = Change in normalised AUCinfinity in rat at 10 mg/kg, po measured upto 72 hrs by LC-MS/MS analysis; assay type: ADME, organism-based; conditions: in vivo
[2] = Chemical stability of compound in simulated gastric fluid assessed as compound remaining at 5 uM measured after 1.5 hrs by LC-MS/MS analysis; assay type: ADME, physicochemical; conditions: read-out: Stabilty
[3] = Chemical stability of compound in 0.1 N aqueous HCl buffer assessed as compound remaining at pH 1 at 5 uM measured after 24 hrs by LC-MS/MS analysis; assay type: physicochemical; conditions: pH 1, 24 h
[4] = Chemical stability of compound in 0.1 N aqueous HCl buffer assessed as compound remaining at pH 1 at 5 uM measured after 1.5 hrs by LC-MS/MS analysis; assay type: physicochemical; conditions: pH 1, 1.5 h
[5] = Change in Cmax in rat at 37 umol/kg, po measured upto 72 hrs by LC-MS/MS analysis; assay type: ADME, organism-based; conditions: in vivo, at 37 µmol/kg
[6] = Stability in mouse plasma assessed as parent compound remaining measured after 2 hrs by LC-MS/MS analysis; assay type: ADME, cell-free; conditions: read-out: Stabilty
[7] = Stability in human plasma assessed as parent compound remaining measured after 24 hrs by LC-MS/MS analysis; assay type: ADME, cell-free; conditions: read-out: Stabilty
[8] = Change in AUC (infinity) in rat at 37 umol/kg, po measured upto 72 hrs by LC-MS/MS analysis; assay type: ADME, organism-based; conditions: in vivo, at 37 µmol/kg
[9] = Chemical stability of compound in PBS buffer assessed as compound remaining at pH 7.4 at 5 uM measured after 6 hrs by LC-MS/MS analysis; assay type: physicochemical; conditions: read-out: Stabilty
[10] = Chemical stability of compound in saline assessed as compound remaining at 5 uM measured after 24 hrs by LC-MS/MS analysis; assay type: physicochemical; conditions: read-out: Stabilty
[11] = Chemical stability of compound in simulated intestinal fluid assessed as compound remaining at 5 uM measured after 24 hrs by LC-MS/MS analysis; assay type: ADME, physicochemical; conditions: read-out: Stabilty
[12] = Dose normalized Cmax in rat at 10 mg/kg, po measured upto 72 hrs by LC-MS/MS analysis; assay type: ADME, organism-based; conditions: in vivo
[13] = Change in normalised Cmax in rat at 10 mg/kg, po measured upto 72 hrs by LC-MS/MS analysis; assay type: ADME, organism-based; conditions: in vivo
[14] = Chemical stability of compound in simulated gastric fluid assessed as compound remaining at 5 uM measured after 24 hrs by LC-MS/MS analysis; assay type: ADME, physicochemical; conditions: read-out: Stabilty
[15] = Dose normalized AUC (0 to infinity) in rat at 10 mg/kg, po measured upto 72 hrs by LC-MS/MS analysis; assay type: ADME, organism-based; conditions: in vivo
[16] = Chemical stability of compound in simulated intestinal fluid assessed as compound remaining at 5 uM measured after 3 hrs by LC-MS/MS analysis; assay type: ADME, physicochemical; conditions: read-out: Stabilty
[17] = Stability in rat plasma assessed as parent compound remaining measured after 2 hrs by LC-MS/MS analysis; assay type: ADME, cell-free; conditions: read-out: Stabilty
[18] = Stability in human plasma assessed as parent compound remaining measured after 6 hrs by LC-MS/MS analysis; assay type: ADME, cell-free; conditions: read-out: Stabilty
[19] = Chemical stability of compound in PBS buffer assessed as compound remaining at pH 7.4 at 5 uM measured after 24 hrs by LC-MS/MS analysis; assay type: physicochemical; conditions: read-out: Stabilty

Cl.Cn1cc(C[C@@H](N)C(=O)OCC2CCNCC2)c2ccccc21
Activity [1]: 75%
remaining at 1.5 h, 5 µM [2]: 75%
Stabilty [3]: 23%
Stabilty [4]: 36%
Activity [5]: -69%
remaining at 2 h [6]: 0%
remaining at 24 h [7]: 2%
Activity [8]: -54%
remaining at 6 h, 5 µM [9]: 92%
remaining at 24 h, 5 µM [10]: 23%
remaining at 24 h, 5 µM [11]: 3%
Cmax/dose [12]: 21.5 µM
Activity [13]: 24%
remaining at 24 h, 5 µM [14]: 73%
AUC/dose [15]: 889 µM·h
remaining at 3 h, 5 µM [16]: 45%
remaining at 2 h [17]: 19%
remaining at 6 h [18]: 44%
remaining at 24 h, 5 µM [19]: 12%

Cl.Cn1cc(C[C@@H](N)C(=O)OCC(O)CO)c2ccccc21 (stereo not given in full)
Activity [1]: 17%
remaining at 1.5 h, 5 µM [2]: 62%
Stabilty [3]: 99%
Stabilty [4]: 37%
Activity [5]: 28%
remaining at 2 h [6]: 0%
remaining at 24 h [7]: 11%
Activity [8]: 21%
remaining at 6 h, 5 µM [9]: 50%
remaining at 24 h, 5 µM [10]: 99%
remaining at 24 h, 5 µM [11]: 10%
Cmax/dose [12]: 33.3 µM
Activity [13]: 92%
remaining at 24 h, 5 µM [14]: 58%
AUC/dose [15]: 595 µM·h
remaining at 3 h, 5 µM [16]: 34%
remaining at 2 h [17]: 0%
remaining at 6 h [18]: 33%
remaining at 24 h, 5 µM [19]: 29%

Cl.Cn1cc(C[C@@H](NC(=O)CN)C(=O)O)c2ccccc21 (H-Gly-[dTrp(1-Me)]-OH)
Activity [1]: 18%
remaining at 1.5 h, 5 µM [2]: 80%
Stabilty [3]: 99%
Stabilty [4]: 64%
Activity [5]: 10%
remaining at 2 h [6]: 100%
remaining at 24 h [7]: 68%
Activity [8]: 1%
remaining at 6 h, 5 µM [9]: 83%
remaining at 24 h, 5 µM [10]: 99%
remaining at 24 h, 5 µM [11]: 38%
Cmax/dose [12]: 28 µM
Activity [13]: 62%
remaining at 24 h, 5 µM [14]: 78%
AUC/dose [15]: 599 µM·h
remaining at 3 h, 5 µM [16]: 64%
remaining at 2 h [17]: 56%
remaining at 6 h [18]: 78%
remaining at 24 h, 5 µM [19]: 65%

Cl.Cn1cc(C[C@@H](NC(=O)[C@@H](N)CCCCN)C(=O)O)c2ccccc21
Activity [1]: 56%
remaining at 1.5 h, 5 µM [2]: 97%
Stabilty [3]: 100%
Stabilty [4]: 89%
Activity [5]: 8%
remaining at 2 h [6]: 77%
remaining at 24 h [7]: 78%
Activity [8]: -10%
remaining at 6 h, 5 µM [9]: 93%
remaining at 24 h, 5 µM [10]: 100%
remaining at 24 h, 5 µM [11]: 96%
Cmax/dose [12]: 16.7 µM
Activity [13]: -3%
remaining at 24 h, 5 µM [14]: 92%
AUC/dose [15]: 795 µM·h
remaining at 3 h, 5 µM [16]: 96%
remaining at 2 h [17]: 95%
remaining at 6 h [18]: 96%
remaining at 24 h, 5 µM [19]: 57%

CC[C@H](C)[C@H](N)C(=O)N[C@H](Cc1cn(C)c2ccccc12)C(=O)O.Cl
Activity [1]: -38%
remaining at 1.5 h, 5 µM [2]: 81%
Stabilty [3]: 98%
Stabilty [4]: 92%
remaining at 2 h [6]: 80%
remaining at 24 h [7]: 86%
remaining at 6 h, 5 µM [9]: 100%
remaining at 24 h, 5 µM [10]: 98%
remaining at 24 h, 5 µM [11]: 0%
Cmax/dose [12]: 12.5 µM
Activity [13]: -28%
remaining at 24 h, 5 µM [14]: 77%
AUC/dose [15]: 316 µM·h
remaining at 3 h, 5 µM [16]: 94%
remaining at 2 h [17]: 54%
remaining at 6 h [18]: 84%
remaining at 24 h, 5 µM [19]: 100%

Cl.Cn1cc(C[C@@H](NC(=O)[C@@H](N)CCC(=O)O)C(=O)O)c2ccccc21
Activity [1]: 13%
remaining at 1.5 h, 5 µM [2]: 90%
Stabilty [3]: 91%
Stabilty [4]: 99%
remaining at 2 h [6]: 100%
remaining at 24 h [7]: 86%
remaining at 6 h, 5 µM [9]: 81%
remaining at 24 h, 5 µM [10]: 91%
remaining at 24 h, 5 µM [11]: 85%
Cmax/dose [12]: 17.6 µM
Activity [13]: 2%
remaining at 24 h, 5 µM [14]: 88%
AUC/dose [15]: 574 µM·h
remaining at 3 h, 5 µM [16]: 88%
remaining at 2 h [17]: 100%
remaining at 6 h [18]: 90%
remaining at 24 h, 5 µM [19]: 60%

Cl.Cn1cc(C[C@@H](N)C(=O)OCCC2CCNCC2)c2ccccc21
Activity [1]: -78%
remaining at 1.5 h, 5 µM [2]: 90%
Stabilty [3]: 46%
Stabilty [4]: 74%
remaining at 2 h [6]: 0%
remaining at 24 h [7]: 4%
remaining at 6 h, 5 µM [9]: 91%
remaining at 24 h, 5 µM [10]: 46%
remaining at 24 h, 5 µM [11]: 8%
Cmax/dose [12]: 2.4 µM
Activity [13]: -86%
remaining at 24 h, 5 µM [14]: 90%
AUC/dose [15]: 110 µM·h
remaining at 3 h, 5 µM [16]: 62%
remaining at 2 h [17]: 0%
remaining at 6 h [18]: 27%
remaining at 24 h, 5 µM [19]: 22%

CC(C)C(NC(=O)[C@H](N)Cc1cn(C)c2ccccc12)C(=O)O.Cl (single isomer, unassigned)
Activity [1]: -60%
remaining at 1.5 h, 5 µM [2]: 54%
Stabilty [3]: 98%
Stabilty [4]: 51%
remaining at 2 h [6]: 89%
remaining at 24 h [7]: 39%
remaining at 6 h, 5 µM [9]: 99%
remaining at 24 h, 5 µM [10]: 98%
remaining at 24 h, 5 µM [11]: 64%
Cmax/dose [12]: 1.6 µM
Activity [13]: -91%
remaining at 24 h, 5 µM [14]: 49%
AUC/dose [15]: 202 µM·h
remaining at 3 h, 5 µM [16]: 62%
remaining at 2 h [17]: 100%
remaining at 6 h [18]: 68%
remaining at 24 h, 5 µM [19]: 37%

C[C@H](N)C(=O)N[C@H](Cc1cn(C)c2ccccc12)C(=O)O.Cl
Activity [1]: -39%
remaining at 1.5 h, 5 µM [2]: 20%
Stabilty [3]: 40%
Stabilty [4]: 100%
remaining at 2 h [6]: 94%
remaining at 24 h [7]: 0%
remaining at 6 h, 5 µM [9]: 58%
remaining at 24 h, 5 µM [10]: 40%
remaining at 24 h, 5 µM [11]: 12%
Cmax/dose [12]: 13.4 µM
Activity [13]: -22%
remaining at 24 h, 5 µM [14]: 25%
AUC/dose [15]: 310 µM·h
remaining at 3 h, 5 µM [16]: 36%
remaining at 2 h [17]: 92%
remaining at 6 h [18]: 65%
remaining at 24 h, 5 µM [19]: 34%

Cl.Cn1cc(C[C@@H](NC(=O)[C@@H](N)Cc2ccccc2)C(=O)O)c2ccccc21
Activity [1]: -16%
remaining at 1.5 h, 5 µM [2]: 79%
Stabilty [3]: 92%
Stabilty [4]: 96%
remaining at 2 h [6]: 66%
remaining at 24 h [7]: 75%
remaining at 6 h, 5 µM [9]: 89%
remaining at 24 h, 5 µM [10]: 92%
remaining at 24 h, 5 µM [11]: 0%
Cmax/dose [12]: 11.9 µM
Activity [13]: -31%
remaining at 24 h, 5 µM [14]: 80%
AUC/dose [15]: 425 µM·h
remaining at 3 h, 5 µM [16]: 91%
remaining at 2 h [17]: 19%
remaining at 6 h [18]: 87%
remaining at 24 h, 5 µM [19]: 92%

Cl.Cn1cc(C[C@@H](NC(=O)[C@@H](N)CCC(N)=O)C(=O)O)c2ccccc21
Activity [1]: -27%
remaining at 1.5 h, 5 µM [2]: 83%
Stabilty [3]: 78%
Stabilty [4]: 65%
remaining at 2 h [6]: 49%
remaining at 24 h [7]: 83%
remaining at 6 h, 5 µM [9]: 100%
remaining at 24 h, 5 µM [10]: 78%
remaining at 24 h, 5 µM [11]: 0%
Cmax/dose [12]: 8.5 µM
Activity [13]: -51%
remaining at 24 h, 5 µM [14]: 83%
AUC/dose [15]: 372 µM·h
remaining at 3 h, 5 µM [16]: 53%
remaining at 2 h [17]: 100%
remaining at 6 h [18]: 93%
remaining at 24 h, 5 µM [19]: 74%
